Measured values published in patent US11000033B2, “Ketone or oxime compound, and herbicide” (NISSAN CHEMICAL CORPORATION, priority 2014, dated 2021).

Experiments:
Type in all cases: in vivo
Scirpus juncoides = assay: Test Example 2: herbicidal activity, application during weed generation in submerged conditions (symbol B); conditions: Table 23; application herbicide amount 320 g/ha; grade 0-5 by criteria of Test Example 1
Method in brief: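 Treatment timing was the one- to two-leaf stage, with diluted emulsifiable compound dropped onto the paddy water (depth 4 cm) over alluvial soil. All three species grew from a mixed sowing in a 25° C. to 30° C. greenhouse. Injury was judged by eye 3 weeks on.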

[1] = test system: Echinochloa crus-galli var. crus-galli; assay: Test Example 3: herbicidal effect by foliage application, Wagner pot (symbol H); conditions: application herbicide amount 320 g/ha
Method in brief: (§1)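 The compound, formulated as an emulsion and diluted with water to a predetermined rate, is applied uniformly to leaves of two-week-old seedlings growing in submerged alluvial soil at 25–30 °C. Rice is included. Each plant is assessed 3 weeks later using defined criteria.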

Cyperus difformis = assay: Test Example 3: herbicidal effect by foliage application, Wagner pot (symbol E); conditions: application herbicide amount 320 g/ha
Method in brief: as §1

[2] = test system: Echinochloa crus-galli var. crus-galli; assay: Test Example 4: herbicidal effect by soil treatment (symbol H); conditions: application herbicide amount 320 g/ha
Method in brief: (§2)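 Seeds were sown in sterilized diluvial soil, covered with about 1.5 cm of soil, and the soil surface was sprayed with a water-diluted emulsion of the compound at a predetermined rate. Plants grew in a greenhouse at 25° C. to 30° C.; effects were scored visually 3 weeks after application.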

Lolium multiflorum Lam. [3] = assay: Test Example 4: herbicidal effect by soil treatment (symbol K); conditions: application herbicide amount 320 g/ha
Method in brief: as §2

Apera spica-venti = assay: Test Example 4: herbicidal effect by soil treatment (symbol L); conditions: application herbicide amount 320 g/ha
Method in brief: as §2

Galium spurium = assay: Test Example 4: herbicidal effect by soil treatment (symbol Q); conditions: application herbicide amount 320 g/ha
Method in brief: as §2

corn = assay: Test Example 4: effect on crop by soil treatment (symbol c); conditions: application herbicide amount 320 g/ha
Method in brief: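 Soil-treatment setup: crop and weed seeds were spot-sown into sterilized diluvial soil, then buried beneath approximately 1.5 cm of it, and the boxes were housed in a 25–30° C. greenhouse.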

rice = assay: Test Example 4: effect on crop by soil treatment (symbol b); conditions: application herbicide amount 320 g/ha
Method in brief: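 Plants are raised in a greenhouse (25° C. to 30° C.) from spot-sown seed, which sits under about 1.5 cm of sterilized diluvial soil in a box shared with weed species.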

Setaria viridis = assay: Test Example 5: herbicidal effect by foliage application, plastic box (symbol G); conditions: 320 g/ha, 3 weeks after application
Method in brief: (§3)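 Greenhouse foliar test: seedlings at 14 days, grown 25° C. to 30° C. in sterilized diluvial soil; compound applied as an aqueous dilution of an emulsion; response read 3 weeks after spraying.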

Avena fatua = assay: Test Example 5: herbicidal effect by foliage application, plastic box (symbol I); conditions: 320 g/ha, 3 weeks after application
Method in brief: as §3

Alopecurus myosuroides = assay: Test Example 5: herbicidal effect by foliage application, plastic box (symbol J); conditions: 320 g/ha, 3 weeks after application
Method in brief: as §3

Lolium multiflorum Lam. [4] = assay: Test Example 5: herbicidal effect by foliage application, plastic box (symbol K); conditions: 320 g/ha, 3 weeks after application
Method in brief: as §3

Stellaria media = assay: Test Example 5: herbicidal effect by foliage application, plastic box (symbol P); conditions: 320 g/ha, 3 weeks after application
Method in brief: as §3

Veronica persica = assay: Test Example 5: herbicidal effect by foliage application, plastic box (symbol R); conditions: 320 g/ha, 3 weeks after application
Method in brief: as §3

rice plant = assay: Test Example 5: effect on crop by foliage application, plastic box (symbol b); conditions: 320 g/ha, 3 weeks after application
Method in brief: (§4)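 Plants were raised from seed in a greenhouse (25° C. to 30° C.) after sowing in a plastic box of sterilized diluvial soil.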

wheat = assay: Test Example 5: effect on crop by foliage application, plastic box (symbol e); conditions: 320 g/ha, 3 weeks after application
Method in brief: as §4

Compound | Herbicidal effect grade, B: Scirpus juncoides (Scirpus juncoides) | herbicidal effect on H (Echinochloa crus-galli var. crus-galli), grade 0-5 [1] | herbicidal effect on E, grade 0-5 (Cyperus difformis) | H: Echinochloa crus-galli var. crus-galli, herbicidal effect grade [2] | K: Lolium multiflorum Lam., herbicidal effect grade (Lolium multiflorum Lam. [3]) | L: Apera spica-venti, herbicidal effect grade (Apera spica-venti) | Q: Galium spurium, herbicidal effect grade (Galium spurium) | c: corn, effect on crop grade (corn) | b: directly sowed rice plant, effect on crop grade (rice) | G: Setaria viridis, herbicidal effect grade (Setaria viridis) | I: Avena fatua, herbicidal effect grade (Avena fatua) | J: Alopecurus myosuroides, herbicidal effect grade (Alopecurus myosuroides) | K: Lolium multiflorum Lam., herbicidal effect grade (Lolium multiflorum Lam. [4]) | P: Stellaria media, herbicidal effect grade (Stellaria media) | R: Veronica persica, herbicidal effect grade (Veronica persica) | b: directly sowed rice plant, effect on crop grade (rice plant) | e: wheat, effect on crop grade (wheat)
CON=C(C)CC1CC(O)=C(c2c(C)cc(-c3ccc(OC)cc3)cc2C)C1=O (mixture of isomers) [6-017] | 3 (Herbicidal ratio of 40% or higher and lower than 70%) | 5 (Herbicidal ratio of 90% or more (almost completely withered)) | 4 (Herbicidal ratio of 70% or higher and lower than 90%) | 3 (Herbicidal ratio of 40% or higher and lower than 70%) | 4 (Herbicidal ratio of 70% or higher and lower than 90%) | 5 (Herbicidal ratio of 90% or more (almost completely withered)) | 0 (Herbicidal ratio of 5% or lower (almost no effect)) | 0 (Herbicidal ratio of 5% or lower (almost no effect)) | 3 (Herbicidal ratio of 40% or higher and lower than 70%) | 5 (Herbicidal ratio of 90% or more (almost completely withered)) | 5 (Herbicidal ratio of 90% or more (almost completely withered)) | 5 (Herbicidal ratio of 90% or more (almost completely withered)) | 5 (Herbicidal ratio of 90% or more (almost completely withered)) | 1 (Herbicidal ratio of 5% or higher and lower than 20%) | 3 (Herbicidal ratio of 40% or higher and lower than 70%) | 5 (Herbicidal ratio of 90% or more (almost completely withered)) | 1 (Herbicidal ratio of 5% or higher and lower than 20%)
CON=C(C)CC1CC(O)=C(c2c(C)cc(-c3ccc(C)cc3)cc2C)C1=O (mixture of isomers) [6-018] | 4 (Herbicidal ratio of 70% or higher and lower than 90%) | 5 (Herbicidal ratio of 90% or more (almost completely withered)) | 5 (Herbicidal ratio of 90% or more (almost completely withered)) | 5 (Herbicidal ratio of 90% or more (almost completely withered)) | 5 (Herbicidal ratio of 90% or more (almost completely withered)) | 5 (Herbicidal ratio of 90% or more (almost completely withered)) | 0 (Herbicidal ratio of 5% or lower (almost no effect)) | 0 (Herbicidal ratio of 5% or lower (almost no effect)) | 3 (Herbicidal ratio of 40% or higher and lower than 70%) | 5 (Herbicidal ratio of 90% or more (almost completely withered)) | 4 (Herbicidal ratio of 70% or higher and lower than 90%) | 5 (Herbicidal ratio of 90% or more (almost completely withered)) | 5 (Herbicidal ratio of 90% or more (almost completely withered)) | 3 (Herbicidal ratio of 40% or higher and lower than 70%) | 4 (Herbicidal ratio of 70% or higher and lower than 90%) | 5 (Herbicidal ratio of 90% or more (almost completely withered)) | 2 (Herbicidal ratio of 20% or higher and lower than 40%)
CCOC(=O)C(C(=O)c1ccccn1)C1CC(O)=C(c2c(C)cc(C)cc2C)C1=O (centres unmarked) [2-013] | 0 (Herbicidal ratio of 5% or lower (almost no effect)) | 0 (Herbicidal ratio of 5% or lower (almost no effect)) | 0 (Herbicidal ratio of 5% or lower (almost no effect)) | 1 (Herbicidal ratio of 5% or higher and lower than 20%) | 1 (Herbicidal ratio of 5% or higher and lower than 20%) | 0 (Herbicidal ratio of 5% or lower (almost no effect)) | 0 (Herbicidal ratio of 5% or lower (almost no effect)) | 0 (Herbicidal ratio of 5% or lower (almost no effect)) | 5 (Herbicidal ratio of 90% or more (almost completely withered)) | 5 (Herbicidal ratio of 90% or more (almost completely withered)) | 3 (Herbicidal ratio of 40% or higher and lower than 70%) | 5 (Herbicidal ratio of 90% or more (almost completely withered)) | 5 (Herbicidal ratio of 90% or more (almost completely withered)) | 1 (Herbicidal ratio of 5% or higher and lower than 20%) | 2 (Herbicidal ratio of 20% or higher and lower than 40%) | 5 (Herbicidal ratio of 90% or more (almost completely withered)) | 0 (Herbicidal ratio of 5% or lower (almost no effect))
Cc1cc(C)c(C2=C(O)CC(CC(=O)C3CC3)C2=O)c(C)c1 (centres unmarked) [2-017] | 4 (Herbicidal ratio of 70% or higher and lower than 90%) | 5 (Herbicidal ratio of 90% or more (almost completely withered)) | 5 (Herbicidal ratio of 90% or more (almost completely withered)) | 5 (Herbicidal ratio of 90% or more (almost completely withered)) | 5 (Herbicidal ratio of 90% or more (almost completely withered)) | 3 (Herbicidal ratio of 40% or higher and lower than 70%) | 0 (Herbicidal ratio of 5% or lower (almost no effect)) | 0 (Herbicidal ratio of 5% or lower (almost no effect)) | 5 (Herbicidal ratio of 90% or more (almost completely withered)) | 5 (Herbicidal ratio of 90% or more (almost completely withered)) | 4 (Herbicidal ratio of 70% or higher and lower than 90%) | 4 (Herbicidal ratio of 70% or higher and lower than 90%) | 5 (Herbicidal ratio of 90% or more (almost completely withered)) | 0 (Herbicidal ratio of 5% or lower (almost no effect)) | 0 (Herbicidal ratio of 5% or lower (almost no effect)) | 5 (Herbicidal ratio of 90% or more (almost completely withered)) | 0 (Herbicidal ratio of 5% or lower (almost no effect))
